The test system of this assay is RPA194 (RNA polymerase I, Pol I). In words: RPA194 destruction / Pol I inhibition, high-content imaging in A375 cells. The class given is cell-based. The conditions noted are these: A375 cells treated for 4 hours, top concentration 10 μM; anti-RPA194 immunofluorescence; pIC50 >= 5.02 deemed a Pol I inhibitor. As for the experimental part:
Cell culture: A375 cells (CRL-1619, ATCC) were grown in DMEM (GTBCO) supplemented with […] fetal bovine serum (GIBCO) in 5% CO2 at 37° C.
Cell treatment and Imaging: 18 hours post-seeding in cell carrier black 384-well plates (PerkinElmer) at 15 000 cells/well, A375 cells were treated for 4 hours with a positive control or test compounds (9 serial semi-log dilutions, top concentration 10 μM). Upon treatment A375 cells were (i) fixed for 15 min at RT with 4% of paraformaldehyde, (ii) permeabilized for 20 min at RT with 0.1-0.5% of NP-40, (iii) incubated with primary antibodies at 4° C.: anti-RPA194 (1:1000-1:1250 dilution, sc-48385, Santa Cruz Biotechnology) and anti-gH2Ax (1:5000 dilution, 81299, Abcam or 1:4000, JBW302, Millipore) (iv) incubated for 1 h at RT with Hoechst (1:5000 dilution, H3570, ThermoFisher) and secondary antibodies: anti-mouse-AlexaFluor488 (1:2000 dilution, A11001, ThermoFisher) and anti-rabbit-AlexaFluor647 (1:2000 dilution, A21443, ThermoFisher) or goat anti-mouse AlexaFluor-594 (1:1000 dilution). Images were acquired on an Operetta CLS High-Content Analysis System (PerkinElmer) (40× objective; 9 fields/well) and processed using the Columbus Image Analysis System (PerkinElmer) or by using Molecular Devices ImageXpress Micro XLS High Content Imager and MetaXpress high-content acquisition and analysis software.
In the table below, (+) is associated with a pIC50 5.02 to 5.8; (++) with pIC50 5.8 to 6.3; and plus sing (+++) with a pIC50 above 6.3.

Structures can show the parent of a compound that is named as a salt.

With `O=C(NCC1CCCC(CO)N1)c1cccn2c(=O)c3cc4ccccc4cc3nc12` (centres unmarked) [Compound 101, N-((6-(hydroxymethyl)piperidin-2-yl)methyl)-12-oxo-12H-benzo[g]pyrido[2,1-b]quinazoline-4-carboxamide hydrochloride], the “Activity Range (pIC50)” value is reported as “++ ((++) with pIC50 5.8 to 6.3)”.
Take `O=C(NCC1CCCN1)c1cccn2c(=O)c3cc4ccccc4cc3nc12` (centres unmarked) [Compound 102, 12-oxo-N-(pyrrolidin-2-ylmethyl)-12H-benzo[g]pyrido[2,1-b]quinazoline-4-carboxamide trifluoroacetate]: the “Activity Range (pIC50)” value was “++ ((++) with pIC50 5.8 to 6.3)”.
Next, `CC(NC(=O)c1cccn2c(=O)c3cc4ccccc4cc3nc12)C1CCCCN1` (centres unmarked) [Compound 103, 12-oxo-N-(1-(piperidin-2-yl)ethyl)-12H-benzo[g]pyrido[2,1-b]quinazoline-4-carboxamide hydrochloride]: “++ ((++) with pIC50 5.8 to 6.3)”; `O=C(NCC1CCCCN1)c1cccn2c(=O)c3cc4ccccc4cc3nc12` (centres unmarked) [Compound 104, 12-oxo-N-(piperidin-2-ylmethyl)-12H-benzo[g]pyrido[2,1-b]quinazoline-4-carboxamide hydrochloride]: “++ ((++) with pIC50 5.8 to 6.3)”.
Next, `CCN1CCCCC1CNC(=O)c1cccn2c(=O)c3cc4ccccc4cc3nc12` (centres unmarked) [Compound 105, N-((1-ethylpiperidin-2-yl)methyl)-12-oxo-12H-benzo[g]pyrido[2,1-b]quinazoline-4-carboxamide hydrochloride]: “++ ((++) with pIC50 5.8 to 6.3)”.
Next, `CC(C)N1CCCCC1CNC(=O)c1cccn2c(=O)c3cc4ccccc4cc3nc12` (centres unmarked) [Compound 106, N-((1-isopropylpiperidin-2-yl)methyl)-12-oxo-12H-benzo[g]pyrido[2,1-b]quinazoline-4-carboxamide hydrochloride]: “+ ((+) is associated with a pIC50 5.02 to 5.8)”; `CN1CCCC1CNC(=O)c1cccn2c(=O)c3cc4ccccc4cc3nc12` (centres unmarked) [Compound 107, N-((1-methylpyrrolidin-2-yl)methyl)-12-oxo-12H-benzo[g]pyrido[2,1-b]quinazoline-4-carboxamide hydrochloride]: “+ ((+) is associated with a pIC50 5.02 to 5.8)”; `CN1CCOCC1CNC(=O)c1cccn2c(=O)c3cc4ccccc4cc3nc12` (centres unmarked) [Compound 108, N-((4-methylmorpholin-3-yl)methyl)-12-oxo-12H-benzo[g]pyrido[2,1-b]quinazoline-4-carboxamide hydrochloride]: “+ ((+) is associated with a pIC50 5.02 to 5.8)”.
`O=C(NCCN1CC[C@H](O)C1)c1cccn2c(=O)c3cc4ccccc4cc3nc12` [Compound 109, (S)-N-(2-(3-hydroxypyrrolidin-1-yl)ethyl)-12-oxo-12H-benzo[g]pyrido[2,1-b]quinazoline-4-carboxamide hydrochloride]: the “Activity Range (pIC50)” value was “++ ((++) with pIC50 5.8 to 6.3)”.
Regarding `O=C(NCCN1CC[C@@H](O)C1)c1cccn2c(=O)c3cc4ccccc4cc3nc12` [Compound 110, (R)-N-(2-(3-hydroxypyrrolidin-1-yl)ethyl)-12-oxo-12H-benzo[g]pyrido[2,1-b]quinazoline-4-carboxamide hydrochloride], the “Activity Range (pIC50)” value is on record as “+++ ((+++) with a pIC50 above 6.3)”.
As for `N#CC1CCN(CCNC(=O)c2cccn3c(=O)c4cc5ccccc5cc4nc23)CC1` [Compound 111, N-(2-(4-cyanopiperidine-1-yl)ethyl)-12-oxo-12H-benzo[g]pyrido[2,1-b]quinazoline-4-carboxamide hydrochloride], the “Activity Range (pIC50)” value is “+ ((+) is associated with a pIC50 5.02 to 5.8)”.
Next, `O=C(NCCN1CCSCC1)c1cccn2c(=O)c3cc4ccccc4cc3nc12` [Compound 112, 12-oxo-N-(2-thiomorpholinoethyl)-12H-benzo[g]pyrido[2,1-b]quinazoline-4-carboxamide hydrochloride]: “+ ((+) is associated with a pIC50 5.02 to 5.8)”; `O=C(NCCN1CCC(O)(O)CC1)c1cccn2c(=O)c3cc4ccccc4cc3nc12` [Compound 113, N-(2-(4,4-dihydroxypiperidin-1-yl)ethyl)-12-oxo-12H-benzo[g]pyrido[2,1-b]quinazoline-4-carboxamide hydrochloride]: “++ ((++) with pIC50 5.8 to 6.3)”; `CN(CCC#N)CCNC(=O)c1cccn2c(=O)c3cc4ccccc4cc3nc12` [Compound 114, N-(2-((2-cyanoethyl)(methyl)amino)ethyl)-12-oxo-12H-benzo[g]pyrido[2,1-b]quinazoline-4-carboxamide hydrochloride]: “+ ((+) is associated with a pIC50 5.02 to 5.8)”.
Next, `COC(=O)N1CCN(CCNC(=O)c2cccn3c(=O)c4cc5ccccc5cc4nc23)CC1` [Compound 115, methyl 4-(2-(12-oxo-12H-benzo[g]pyrido[2,1-b]quinazoline-4-carboxamido)ethyl)piperazine-1-carboxylate hydrochloride]: “+ ((+) is associated with a pIC50 5.02 to 5.8)”; `O=C(NCCN1CCC(F)CC1)c1cccn2c(=O)c3cc4ccccc4cc3nc12` [Compound 116, N-(2-(4-fluoropiperidin-1-yl)ethyl)-12-oxo-12H-benzo[g]pyrido[2,1-b]quinazoline-4 carboxamide hydrochloride]: “++ ((++) with pIC50 5.8 to 6.3)”.
Next, `O=C(NCCN1CCC(F)C1)c1cccn2c(=O)c3cc4ccccc4cc3nc12` (centres unmarked) [Compound 117, N-(2-(3-fluoropyrrolidin-1-yl)ethyl)-12-oxo-12H-benzo[g]pyrido[2,1-b]quinazoline-4-carboxamide hydrochloride]: “+ ((+) is associated with a pIC50 5.02 to 5.8)”.
